Experimental data published in patent US20070128217A1 (priority 2003, published 2007).

Legend:
[1] = tested on: rabbit serum obtained by immunizing a rabbit with the SARS-CoV strain Frankfurt 1; assay type: binding; set-up: Binding of a rabbit serum to linear peptides / Binding of a rabbit serum to looped peptides / Rabbit serum linear peptides / Rabbit serum looped peptides / Binding of a rabbit serum to linear peptides of protein N of SARS-CoV Urbani (Rabbit serum linear peptides) / Binding of a rabbit serum to looped/cyclic peptides of protein N of SARS-CoV Urbani (Rabbit serum looped peptides): unit not given here
[2] = tested on: antibodies in sera from SARS patients (sera 1a, 1b, 2, 6, 37, 62, London, SARS-yellow, SARS-green); assay type: binding, human; set-up: Binding of serum 6 to linear peptides of protein X1 of SARS-CoV Urbani / Binding of serum 37 to linear peptides of protein X1 of SARS-CoV Urbani / Binding of serum 6 to looped/cyclic peptide (PEPSCAN-ELISA) / Binding of serum 37 to looped/cyclic peptide (PEPSCAN-ELISA) / Binding of serum 37 to looped/cyclic peptides of protein X1 of SARS-CoV Urbani / Binding of serum 6 to linear peptides of protein X2 / Binding of serum 37 to linear peptides of protein X2 / Binding of serum 37 to looped/cyclic peptides of protein X2 of SARS-CoV Urbani / Binding of serum 6 to linear peptides of protein M of SARS-CoV Urbani / Binding of serum 37 to linear peptides of protein M of SARS-CoV Urbani / Binding of serum 6 to looped/cyclic peptides of protein M of SARS-CoV Urbani / Binding of serum 37 to looped/cyclic peptides of protein M of SARS-CoV Urbani / Binding of serum 6 to linear peptides of protein X3 of SARS-CoV Urbani / Binding of serum 37 to linear peptides of protein X3 of SARS-CoV Urbani / Binding of serum 37 to looped/cyclic peptides of protein X3 of SARS-CoV Urbani / Binding of serum 6 to linear peptides of protein X4 of SARS-CoV Urbani / Binding of serum 37 to linear peptides of protein X4 of SARS-CoV Urbani / Binding of serum 37 to looped/cyclic peptides of protein X4 of SARS-CoV Urbani / Binding of serum 6 to linear peptides of protein X5 of SARS-CoV Urbani / Binding of serum 37 to linear peptides of protein X5 of SARS-CoV Urbani / Binding of serum 37 to looped/cyclic peptides of protein X5 of SARS-CoV Urbani / Binding of serum 6 to linear peptides of protein N of SARS-CoV Urbani / Binding of serum 37 to linear peptides of protein N of SARS-CoV Urbani / Binding of serum 6 to linear peptide (PEPSCAN-ELISA) / Binding of serum 1a to looped/cyclic peptides of protein N of SARS-CoV Urbani / Binding of serum 1b to looped/cyclic peptides of protein N of SARS-CoV Urbani / Binding of serum 2 to looped/cyclic peptides of protein N of SARS-CoV Urbani / Binding of serum 6 to looped/cyclic peptides of protein N of SARS-CoV Urbani / Binding of serum 37 to looped/cyclic peptides of protein N of SARS-CoV Urbani / Binding of serum 62 to looped/cyclic peptides of protein N of SARS-CoV Urbani / Binding of serum London to looped/cyclic peptides of protein N of SARS-CoV Urbani / Binding of serum SARS-green to looped/cyclic peptides of protein N of SARS-CoV Urbani: unit not given here
[3] = tested on: recombinant human anti-SARS-CoV antibody 03-018; assay type: binding; set-up: Binding of antibody 03-018 to linear peptides of the N protein of SARS-CoV Urbani / Binding of antibody 03-018 to looped/cyclic peptides of the N protein of SARS-CoV Urbani: unit not given here
[4] = tested on: control sera (pooled serum of ten healthy LUMC hospital workers; commercial negative donor pooled serum from the Dutch bloodbank); assay type: binding, human; set-up: Binding of Control serum LUMC to linear peptides / Binding of Control serum Blood-bank to linear peptides / Binding of Control serum LUMC to looped peptides / Binding of Control Serum Blood-Bank to Looped peptides / Binding of Control serum LUMC to linear peptides of the protein M of SARS-CoV Urbani / Binding of Control serum Blood-bank to linear peptides of the protein M of SARS-CoV Urbani / Binding of Control serum LUMC to looped peptides of the protein M of SARS-CoV Urbani / Binding of Control Serum Blood-Bank to Looped peptides of the protein M of SARS-CoV Urbani: unit not given here

Sequence	Binding of a rabbit serum to linear peptides of protein N of SARS-CoV Urbani (Rabbit serum linear peptides) [1]	Binding of a rabbit serum to looped/cyclic peptides of protein N of SARS-CoV Urbani (Rabbit serum looped peptides) [1]	Binding of serum 1a to linear peptides of protein N of SARS-CoV Urbani [2]	Binding of serum 1a to looped/cyclic peptides of protein N of SARS-CoV Urbani [2]	Binding of serum 1b to linear peptides of protein N of SARS-CoV Urbani [2]	Binding of serum 1b to looped/cyclic peptides of protein N of SARS-CoV Urbani [2]	Binding of serum 2 to linear peptides of protein N of SARS-CoV Urbani [2]	Binding of serum 2 to looped/cyclic peptides of protein N of SARS-CoV Urbani [2]	Binding of serum 6 to looped/cyclic peptides of protein N of SARS-CoV Urbani [2]	Binding of serum 37 to looped/cyclic peptides of protein N of SARS-CoV Urbani [2]	Binding of serum 62 to looped/cyclic peptides of protein N of SARS-CoV Urbani [2]	Binding of serum London to looped/cyclic peptides of protein N of SARS-CoV Urbani [2]	Binding of serum SARS-green to looped/cyclic peptides of protein N of SARS-CoV Urbani [2]	Binding of serum SARS-yellow to looped/cyclic peptides of protein N of SARS-CoV Urbani [2]	Binding of antibody 03-018 to linear peptides of the N protein of SARS-CoV Urbani [3]	Binding of antibody 03-018 to looped/cyclic peptides of the N protein of SARS-CoV Urbani [3]	Binding of Control Serum Blood-Bank to Looped peptides [4]	Binding of Control serum Blood-bank to linear peptides [4]	Binding of Control serum LUMC to linear peptides [4]	Binding of Control serum LUMC to looped peptides [4]	also measured
QGTDYKHWPQIAQFA	0.2	0.3	0.3	0.4	0.2	0.3	0.2	0.4	0.3	0.6	0.6	0.5	0.3	0.7	0.1	0.2	–	–	–	–	Binding of serum 6 to linear peptides of protein N of SARS-CoV Urbani [2]: 0.2; Binding of serum 37 to linear peptides of protein N of SARS-CoV Urbani [2]: 0.8; Binding of serum 62 to linear peptides of protein N of SARS-CoV Urbani [2]: 0.8; Binding of serum London to linear peptides of protein N of SARS-CoV Urbani [2]: 0.7; Binding of serum SARS-green to linear peptides of protein N of SARS-CoV Urbani [2]: 0.2; Binding of serum SARS-yellow to linear peptides of protein N of SARS-CoV Urbani [2]: 0.7; Control Serum Blood-Bank Looped peptides [4]: 0.6; Control serum Blood-bank linear peptides [4]: 0.8; Control serum LUMC linear peptides [4]: 0.6; Control serum LUMC looped peptides [4]: 0.7
NTPKDHIGTRNPNNN	0.1	0.1	0.3	0.4	0.1	0.3	0.3	0.4	0.3	0.6	0.3	0.4	0.4	0.4	0.1	0.2	0.5	0.8	0.7	0.6	Binding of serum 6 to linear peptides of protein N of SARS-CoV Urbani [2]: 0.2; Binding of serum 37 to linear peptides of protein N of SARS-CoV Urbani [2]: 0.8; Binding of serum 62 to linear peptides of protein N of SARS-CoV Urbani [2]: 0.7; Binding of serum London to linear peptides of protein N of SARS-CoV Urbani [2]: 0.4; Binding of serum SARS-green to linear peptides of protein N of SARS-CoV Urbani [2]: 0.4; Binding of serum SARS-yellow to linear peptides of protein N of SARS-CoV Urbani [2]: 0.6
ASSRSSSRSRGNSRN	0.3	0.7	–	0.3	–	0.2	–	0.4	0.3	0.6	0.5	0.4	0.2	0.4	0.1	0.2	0.6	0.6	0.7	0.6	Binding of serum 1a to linear peptide (PEPSCAN-ELISA) [2]: 0.2; Binding of serum 1b to linear peptide (PEPSCAN-ELISA) [2]: 0.1; Binding of serum 2 to linear peptide (PEPSCAN-ELISA) [2]: 0.2; Binding of serum 6 to linear peptide (PEPSCAN-ELISA) [2]: 0.2; Binding of serum 37 to linear peptide (PEPSCAN-ELISA) [2]: 0.6; Binding of serum 62 to linear peptide (PEPSCAN-ELISA) [2]: 0.5; Binding of serum London to linear peptide (PEPSCAN-ELISA) [2]: 0.5; Binding of serum SARS-green to linear peptide (PEPSCAN-ELISA) [2]: 0.3; Binding of serum SARS-yellow to linear peptide (PEPSCAN-ELISA) [2]: 0.7
KKSAAEASKKPRQKR	0.4	0.8	–	0.2	–	0.1	–	0.3	0.2	0.5	0.3	0.4	0.2	0.3	0.1	0.2	0.5	1.0	1.0	0.5	Recognition of the peptide by sera of SARS-CoV infected individuals, and form (linear, looped/cyclic) in which it is recognized [2]: recognized in linear form
RSRGNSRNSTPGSSR	0.4	1.1	–	0.3	–	0.1	–	0.2	0.2	0.2	0.1	0.2	0.1	0.1	0.1	0.2	0.3	0.8	0.6	0.3	Binding of serum 1a to linear peptide (PEPSCAN-ELISA) [2]: 0.7; Binding of serum 1b to linear peptide (PEPSCAN-ELISA) [2]: 0.4; Binding of serum 2 to linear peptide (PEPSCAN-ELISA) [2]: 0.2; Binding of serum 6 to linear peptide (PEPSCAN-ELISA) [2]: 0.2; Binding of serum 37 to linear peptide (PEPSCAN-ELISA) [2]: 0.7; Binding of serum 62 to linear peptide (PEPSCAN-ELISA) [2]: 0.6; Binding of serum London to linear peptide (PEPSCAN-ELISA) [2]: 0.5; Binding of serum SARS-green to linear peptide (PEPSCAN-ELISA) [2]: 0.2; Binding of serum SARS-yellow to linear peptide (PEPSCAN-ELISA) [2]: 0.6
